In this assay the target is Gag-Pol polyprotein (Human immunodeficiency virus type 1 group M subtype B (isolate HXB2)(HIV-1), UniProt P04585). As to the kind of experiment: Inhibition Assay: The inhibition of WT HIV-1 protease was studied using the reaction of the protease (expressed in Eschericia coli) with a peptide substrate [Val-Ser-Gln-Asn-(betanaphthyl)Ala-Pro-Ile-Val (SEQ ID NO:1)]. Compounds were tested using Procedure A. In Procedure A, the test compound was first preincubated with the enzyme in assay buffer (50 mM sodium acetate, pH 5.5, 100 mM NaCl, and 0.1% BSA) for 30 minutes at room temperature. Substrate was then added to 400 micromolar in a total volume of 80 microliters containing 10 picomolar HIV-1 protease and the reaction was incubated for 1 hour at 30° C. The reaction was quenched with the addition of 120 microliters of 10% phosphoric acid. The product formation was determined after separation of product and substrate on a Zorbax Eclipse XDB-C18 column (Agilent Technologies, Santa Clara, Calif.) connected to an Agilent 1100 high performance liquid chromatography system with fluorescence detection (excitation 270 nanometer and emission 330 nanometer).

Each structure is given as a SMILES string.

As usually defined, the IC50 is the concentration needed to halve the response being measured. A low value points to greater potency in that assay. `COC(=O)N[C@H](C(=O)N[C@H](c1ccc(C(CO)N(CCC(C)(C)C)S(=O)(=O)c2ccc(OC)nc2)s1)C(F)(F)F)C(c1ccccc1)c1ccccc1` (stereo partly specified) had an IC50 of 27.5 nM.

Consider `COC(=O)N[C@H](C(=O)NCc1ccc([C@@H](CO)N(CC2CC(F)(F)C2)S(=O)(=O)c2ccc(C(C)O)cc2)s1)C(c1ccccc1)c1ccccc1` (stereo partly specified), for which it took 8.97 nM to reach half-maximal inhibition (IC50). This IC50 lies about 3.1-fold lower than the previous one. Next, `COC(=O)N[C@H](C(=O)NCc1ccc([C@@H](CO)N(CC2CC(F)(F)C2)S(=O)(=O)c2ccc(C(C)=O)cc2)s1)C(c1ccccc1)c1ccccc1`: 11.9 nM.

The compound `COC(=O)N[C@H](C(=O)N[C@H](c1ccc([C@@H](CO)N(CCC(C)(C)C)S(=O)(=O)c2ccc(=O)[nH]c2)s1)C(F)(F)F)C(c1ccccc1)c1ccccc1` returned an IC50 of 9.42 nM. Take `COC(=O)N[C@H](C(=O)N[C@H](c1ccc([C@@H](CO)N(C(C)C)S(=O)(=O)c2ccc(N)cc2)s1)C(F)(F)F)[C@@H](c1ccccc1)c1c[nH]c2ncccc12`: it took 3.96 nM to reach half-maximal inhibition (IC50). The value for `COC(=O)N[C@H](C(=O)N[C@H](c1ccc([C@@H](CO)N(C(C)C)S(=O)(=O)c2ccc(N)c(Cl)c2)s1)C(F)(F)F)C(c1ccccc1)c1ccccc1` was 92.5 nM. Next, `COC(=O)N[C@H](C(=O)N[C@H](c1ccc([C@@H](CO)N(C(C)C)S(=O)(=O)c2cc(N)cs2)s1)C(F)(F)F)C(c1ccccc1)c1ccccc1`: 21.7 nM; `COC(=O)N[C@H](C(=O)N[C@H](c1ccc([C@@H](CO)N(CCC(C)(C)C)S(=O)(=O)c2cn3ncnc3cn2)s1)C(F)(F)F)C(c1ccccc1)c1ccccc1`: 3.59 nM; `COC(=O)N[C@H](C(=O)N[C@H](c1ccc([C@@H](CO)N(C(C)C)S(=O)(=O)c2ccc(Cl)s2)s1)C(F)(F)F)C(c1ccccc1)c1ccccc1`: 184 nM.

For the compound `COC(=O)N[C@H](C(=O)N[C@H](c1ccc([C@@H](CO)N(CCC(C)(C)C)S(=O)(=O)C2=CC3NC=C(Cl)C3C=C2)s1)C(F)(F)F)C(c1ccccc1)c1ccccc1` (stereo partly specified), it took 43.8 nM to reach half-maximal inhibition (IC50). Compound `COC(=O)N[C@H](C(=O)NCc1ccc([C@@H](CO)N(CC2CC(F)(F)C2)S(=O)(=O)c2ccc(C(O)C(F)(F)F)cc2)s1)C(c1ccccc1)c1ccccc1` (stereo partly specified) came in with a half-inhibitory concentration (IC50) of 26.9 nM.

Values taken from ChEMBL document CHEMBL3886153, “HIV protease inhibitors” (2015).
